This is an account of results in patent US20240217960A1, “TRIAZINE DERIVATIVE AS COVALENT INHIBITORS OF PI3K” (UNIVERSITÄT BASEL, priority 2021, published 2024).

Read-outs that look alike come from different tables or passages of the source.

Experiment [1] can be described thus: Intrinsic reactivity of the inhibitors (kchem) with βME measured with HPLC. It is filed as physicochemical. To be noted: 1 mM inhibitor + 600 mM βME, n = 3.
A further experiment addresses p110α (PI3Kα) (Homo sapiens, UniProt P42336). The experiment can be described thus: Determination of kinetic constants (kinact, Ki) for p110α by LanthaScreen Technology. It is filed as binding. The settings on record: for kinact: maximum potential rate of covalent bond formation, read-out: kinact PI3Kα; for kinact/KI: read-out: kinact/Ki PI3Kα.
The test system of experiment [2] is pSer473 of PKB/Akt in SKOV3 cells. The experiment can be described thus: In Cell Western cellular PI3K signaling and IC50 determination. Format: cell-based. To be noted: Homo sapiens. The procedure:
Protein phosphorylation was detected as follows: pSer473 of PKB/Akt with rabbit polyclonal antibody from Cell Signaling Technology (CST) (#4058) by In-Cell Western assays, where 1.2×10^4 SKOV3 cells/well in 96-well plates were plated (Cell Carrier, PerkinElmer) for 24 hours (37° C., 5% CO2), as described in Ref. ^25.

Setting [3] is: dissociation constant of the first reversible binding, global fitting with KinTek, read-out: Ki PI3Kα.
Setting [4] is: SK-OV-3, SKOV3 cells, 2 or 3 independent measurements, read-out: IC50 pPKB (S473) SKOV3.
Where [5] appears, read: SK-OV-3, read-out: IC50 pPKB (S473) SKOV3.
[6] abbreviates: Ki value determined after 60 min of drug incubation with PI3Kα, 2 independent measurements, read-out: Ki PI3Kα (footnote d).

Chain of p110α (PI3Kα) (P42336 whole entry): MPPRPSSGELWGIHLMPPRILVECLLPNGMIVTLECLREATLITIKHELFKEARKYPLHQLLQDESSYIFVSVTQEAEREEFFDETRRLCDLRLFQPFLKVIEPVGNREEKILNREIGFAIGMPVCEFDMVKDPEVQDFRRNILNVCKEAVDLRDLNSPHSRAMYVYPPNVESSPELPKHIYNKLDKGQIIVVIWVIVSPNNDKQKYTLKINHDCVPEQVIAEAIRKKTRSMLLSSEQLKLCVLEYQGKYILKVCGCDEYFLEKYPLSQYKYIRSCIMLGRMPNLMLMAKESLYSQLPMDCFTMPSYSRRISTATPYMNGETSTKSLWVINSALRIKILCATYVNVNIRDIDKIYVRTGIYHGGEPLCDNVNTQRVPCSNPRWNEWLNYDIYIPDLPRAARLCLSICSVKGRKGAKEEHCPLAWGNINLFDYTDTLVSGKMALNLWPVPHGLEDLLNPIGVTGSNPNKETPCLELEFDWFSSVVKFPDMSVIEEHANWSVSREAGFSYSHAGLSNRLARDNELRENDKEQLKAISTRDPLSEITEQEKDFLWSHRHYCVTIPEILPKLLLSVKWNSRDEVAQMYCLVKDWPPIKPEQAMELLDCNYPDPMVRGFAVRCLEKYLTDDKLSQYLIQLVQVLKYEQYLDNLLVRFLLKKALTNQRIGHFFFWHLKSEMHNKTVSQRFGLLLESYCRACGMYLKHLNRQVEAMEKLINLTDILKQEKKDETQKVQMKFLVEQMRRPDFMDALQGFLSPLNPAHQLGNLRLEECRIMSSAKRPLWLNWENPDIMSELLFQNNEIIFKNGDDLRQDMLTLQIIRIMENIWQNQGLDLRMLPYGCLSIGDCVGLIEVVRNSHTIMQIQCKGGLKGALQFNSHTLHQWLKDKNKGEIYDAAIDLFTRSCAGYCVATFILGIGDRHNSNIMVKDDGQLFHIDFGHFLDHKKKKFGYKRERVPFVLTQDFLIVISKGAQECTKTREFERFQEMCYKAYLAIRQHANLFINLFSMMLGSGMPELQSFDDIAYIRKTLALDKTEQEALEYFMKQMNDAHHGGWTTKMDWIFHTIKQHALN
Chain of p110α (PI3Kα) (P27986 whole entry partner): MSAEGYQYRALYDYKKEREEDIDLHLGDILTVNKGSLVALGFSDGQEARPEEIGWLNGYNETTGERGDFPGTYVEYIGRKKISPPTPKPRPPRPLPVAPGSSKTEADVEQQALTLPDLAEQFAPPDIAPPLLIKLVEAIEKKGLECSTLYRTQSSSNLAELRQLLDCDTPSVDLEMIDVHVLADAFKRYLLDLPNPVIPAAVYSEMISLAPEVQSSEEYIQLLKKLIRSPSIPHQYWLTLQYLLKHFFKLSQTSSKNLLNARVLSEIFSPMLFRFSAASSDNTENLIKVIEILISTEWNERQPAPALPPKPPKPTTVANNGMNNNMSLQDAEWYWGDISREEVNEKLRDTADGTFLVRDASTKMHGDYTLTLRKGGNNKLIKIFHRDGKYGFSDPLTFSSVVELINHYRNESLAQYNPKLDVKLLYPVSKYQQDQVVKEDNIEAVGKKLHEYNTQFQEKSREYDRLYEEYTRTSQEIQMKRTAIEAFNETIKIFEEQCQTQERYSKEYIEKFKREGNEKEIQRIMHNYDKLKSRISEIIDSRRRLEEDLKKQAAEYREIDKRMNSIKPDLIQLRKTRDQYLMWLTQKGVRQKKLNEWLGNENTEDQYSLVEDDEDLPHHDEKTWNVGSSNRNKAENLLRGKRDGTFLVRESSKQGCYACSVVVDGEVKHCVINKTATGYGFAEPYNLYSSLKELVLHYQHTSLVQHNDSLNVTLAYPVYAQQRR
Description for p110α (PI3Kα): Maximum potential rate of covalent bond formation (kinact) and dissociation constant of the first reversible binding (Ki) of compounds for p110α were determined by LanthaScreen Technology (Life Technologies). The calculation of kinetic parameters was carried out through global fitting for numerical integration by using KinTek Global Kinetic Explorer modelling software^26-31.

The Ki is the equilibrium dissociation constant of an inhibitor or competing ligand from its target. What is called kinact is the maximal first-order rate at which the target is inactivated. One may read the IC50 as the concentration that gives 50% inhibition. Regarding `C/C=C/C(=O)CCCCCC(=O)N1CCN(c2nc(-c3cnc(N)nc3C(F)F)nc(N3CCOCC3)n2)CC1` [Compound 21, (E)-1-(4-(4-(2-amino-4-(difluoromethyl)pyrimidin-5-yl)-6-morpholino-1,3,5-triazin-2-yl)piperazin-1-yl)dec-8-ene-1,7-dione], in experiment [1], the “kchem (intrinsic reactivity of the inhibitors)” value amounted to 0.0632 M⁻¹ s⁻¹. For the same compound, the inhibition constant Ki on p110α (PI3Kα) (setting [3]) stood at 0.0117 µM. The kinact at p110α (PI3Kα) (global fitting with KinTek) was 0.016 s⁻¹. The kinact/KI at p110α (PI3Kα) was 1.27e+06 M⁻¹ s⁻¹. Also, the IC50 in experiment [2] (setting [4]) was 0.0445 µM.
With `C=CC(=O)N1CCC(C(=O)N(C)CCC(=O)N2CCN(c3nc(-c4cnc(N)nc4C(F)F)nc(N4CCOCC4)n3)CC2)CC1` [Compound 57, 1-acryloyl-N-(3-(4-(4-(2-amino-4-(difluoromethyl)pyrimidin-5-yl)-6-morpholino-1,3,5-triazin-2-yl)piperazin-1-yl)-3-oxopropyl)-N-methylpiperidine-4-carboxamide], the “kchem (intrinsic reactivity of the inhibitors)” value in experiment [1] was determined as 0.000388 M⁻¹ s⁻¹. Moreover, the Ki on p110α (PI3Kα) (setting [3]) is 0.0146 µM. The kinact on p110α (PI3Kα) (global fitting with KinTek) was determined as 0.000378 s⁻¹. Moreover, on p110α (PI3Kα), the kinact/KI was 26100 M⁻¹ s⁻¹. For the same compound, the IC50 in experiment [2] (setting [4]) is 0.25 µM.
With `C/C=C/C(=O)CCCC(=O)N1CCN(c2nc(-c3cnc(N)nc3C(F)F)nc(N3CCOCC3)n2)CC1` [Compound 20, (E)-1-(4-(4-(2-amino-4-(difluoromethyl)pyrimidin-5-yl)-6-morpholino-1,3,5-triazin-2-yl)piperazin-1-yl)oct-6-ene-1,5-dione], the “kchem (intrinsic reactivity of the inhibitors)” value in experiment [1] was 0.0806 M⁻¹ s⁻¹. The Ki at p110α (PI3Kα) (setting [3]) was 0.00669 µM. In addition, the kinact at p110α (PI3Kα) (global fitting with KinTek) is 0.00121 s⁻¹. In addition, at p110α (PI3Kα), the kinact/KI turned out to be 183000 M⁻¹ s⁻¹. The IC50 in experiment [2] (setting [4]) worked out at 0.0388 µM.
As for `CC(C)=CC(=O)CCCCCC(=O)N1CCN(c2nc(-c3cnc(N)nc3C(F)F)nc(N3CCOCC3)n2)CC1` [Compound 24, 1-(4-(4-(2-amino-4-(difluoromethyl)pyrimidin-5-yl)-6-morpholino-1,3,5-triazin-2-yl)piperazin-1-yl)-9-methyldec-8-ene-1,7-dione], in experiment [1], the “kchem (intrinsic reactivity of the inhibitors)” value was determined as 0.000173 M⁻¹ s⁻¹. Moreover, the IC50 in experiment [2] (setting [4]) is 0.0892 µM.
Take `C/C=C/C(=O)CCC(=O)N1CCN(c2nc(-c3cnc(N)nc3C(F)F)nc(N3CCOCC3)n2)CC1` [Compound 19, (E)-1-(4-(4-(2-amino-4-(difluoromethyl)pyrimidin-5-yl)-6-morpholino-1,3,5-triazin-2-yl)piperazin-1-yl)hept-5-ene-1,4-dione]: in experiment [1], the “kchem (intrinsic reactivity of the inhibitors)” value is 0.0484 M⁻¹ s⁻¹. Also, at p110α (PI3Kα) (setting [3]), the Ki was determined as 0.00151 µM. Further, the kinact on p110α (PI3Kα) (global fitting with KinTek) came to 0.0002 s⁻¹. The kinact/KI on p110α (PI3Kα) was 130000 M⁻¹ s⁻¹. Moreover, in experiment [2] (setting [4]), the IC50 was 0.02 µM.
Turning to `CC(C)=CC(=O)CCCCC(=O)N1CCN(c2nc(-c3cnc(N)nc3C(F)F)nc(N3CCOCC3)n2)CC1` [Compound 5, 1-(4-(4-(2-amino-4-(difluoromethyl)pyrimidin-5-yl)-6-morpholino-1,3,5-triazin-2-yl)piperazin-1-yl)-8-methylnon-7-ene-1,6-dione], the “kchem (intrinsic reactivity of the inhibitors)” value in experiment [1] was 0.00022 M⁻¹ s⁻¹. Also, on p110α (PI3Kα) (setting [3]), the Ki is 0.0101 µM. At p110α (PI3Kα) (global fitting with KinTek), the kinact is 0.000187 s⁻¹. For the same compound, the kinact/KI on p110α (PI3Kα) was 18700 M⁻¹ s⁻¹. For the same compound, the IC50 in experiment [2] (setting [4]) is 0.0528 µM.
As to `C/C=C/C(=O)CCCCC(=O)N1CCN(c2nc(-c3cnc(N)nc3C(F)F)nc(N3CCOCC3)n2)CC1` [Compound 2, (E)-1-(4-(4-(2-amino-4-(difluoromethyl)pyrimidin-5-yl)-6-morpholino-1,3,5-triazin-2-yl)piperazin-1-yl)non-7-ene-1,6-dione], the “kchem (intrinsic reactivity of the inhibitors)” value in experiment [1] stood at 0.0857 M⁻¹ s⁻¹. On p110α (PI3Kα) (setting [3]), the Ki is 0.00576 µM. On p110α (PI3Kα) (global fitting with KinTek), the kinact worked out at 0.00392 s⁻¹. In addition, the kinact/KI at p110α (PI3Kα) is 693000 M⁻¹ s⁻¹. The IC50 in experiment [2] (setting [4]) was determined as 0.0469 µM.
On to `C=CC(=O)N1CCC(CCC(=O)N2CCN(c3nc(-c4cnc(N)nc4C(F)F)nc(N4CCOCC4)n3)CC2)CC1` [Compound 40, 1-(4-(3-(4-(4-(2-amino-4-(difluoromethyl)pyrimidin-5-yl)-6-morpholino-1,3,5-triazin-2-yl)piperazin-1-yl)-3-oxopropyl)piperidin-1-yl)prop-2-en-1-one], for which the “kchem (intrinsic reactivity of the inhibitors)” value in experiment [1] was determined as 0.000307 M⁻¹ s⁻¹. The Ki on p110α (PI3Kα) (setting [3]) amounted to 0.00856 µM. In addition, the kinact on p110α (PI3Kα) (global fitting with KinTek) was determined as 0.000292 s⁻¹. Besides, on p110α (PI3Kα), the kinact/KI came out at 34300 M⁻¹ s⁻¹. Besides, the IC50 in experiment [2] (setting [4]) came out at 0.048 µM.
For `C=CC(=O)N1CCC(CC(=O)N2CCN(c3nc(-c4cnc(N)nc4C(F)F)nc(N4CCOCC4)n3)CC2)CC1` [Compound 35, 1-(4-(2-(4-(4-(2-amino-4-(difluoromethyl)pyrimidin-5-yl)-6-morpholino-1,3,5-triazin-2-yl)piperazin-1-yl)-2-oxoethyl)piperidin-1-yl)prop-2-en-1-one], the “kchem (intrinsic reactivity of the inhibitors)” value in experiment [1] came to 0.000249 M⁻¹ s⁻¹. Further, the Ki at p110α (PI3Kα) (setting [3]) was 0.0108 µM. In addition, on p110α (PI3Kα) (global fitting with KinTek), the kinact amounted to 9.84e-05 s⁻¹. Besides, the kinact/KI at p110α (PI3Kα) was 9290 M⁻¹ s⁻¹. The IC50 in experiment [2] (setting [4]) stood at 0.047 µM.
Regarding `C=CC(=O)N1CCC(C(=O)N(C)CC(=O)N2CCN(c3nc(-c4cnc(N)nc4C(F)F)nc(N4CCOCC4)n3)CC2)CC1` [Compound 54, 1-acryloyl-N-(2-(4-(4-(2-amino-4-(difluoromethyl)pyrimidin-5-yl)-6-morpholino-1,3,5-triazin-2-yl)piperazin-1-yl)-2-oxoethyl)-N-methylpiperidine-4-carboxamide], the “kchem (intrinsic reactivity of the inhibitors)” value in experiment [1] was determined as 0.000354 M⁻¹ s⁻¹. Besides, in experiment [2] (setting [5]), the IC50 worked out at 0.086 µM.
Regarding `C=CC(=O)N1CCC(C(=O)N2CCN(c3nc(-c4cnc(N)nc4C(F)F)nc(N4CCOCC4)n3)CC2)CC1` [Compound 28, 1-(4-(4-(4-(2-amino-4-(difluoromethyl)pyrimidin-5-yl)-6-morpholino-1,3,5-triazin-2-yl)piperazine-1-carbonyl)piperidin-1-yl)prop-2-en-1-one], the “kchem (intrinsic reactivity of the inhibitors)” value in experiment [1] was determined as 0.00041 M⁻¹ s⁻¹. The Ki on p110α (PI3Kα) (setting [3]) amounted to 0.0108 µM. Moreover, the kinact at p110α (PI3Kα) (global fitting with KinTek) turned out to be 5.77e-05 s⁻¹. Further, on p110α (PI3Kα), the kinact/KI worked out at 5390 M⁻¹ s⁻¹. For the same compound, the IC50 in experiment [2] (setting [4]) is 0.051 µM.
In the case of `C=CC(=O)N1CCC(C(=O)NCCC(=O)N2CCN(c3nc(-c4cnc(N)nc4C(F)F)nc(N4CCOCC4)n3)CC2)CC1` [Compound 48, 1-acryloyl-N-(3-(4-(4-(2-amino-4-(difluoromethyl)pyrimidin-5-yl)-6-morpholino-1,3,5-triazin-2-yl)piperazin-1-yl)-3-oxopropyl)piperidine-4-carboxamide], in experiment [1], the “kchem (intrinsic reactivity of the inhibitors)” value is 0.000452 M⁻¹ s⁻¹. For the same compound, the Ki at p110α (PI3Kα) (setting [3]) came to 0.0141 µM. In addition, the kinact at p110α (PI3Kα) (global fitting with KinTek) was found to be 0.000253 s⁻¹. Also, on p110α (PI3Kα), the kinact/KI amounted to 18000 M⁻¹ s⁻¹. Moreover, the IC50 in experiment [2] (setting [4]) came to 0.664 µM.
As to `CC(C)=CC(=O)CCCC(=O)N1CCN(c2nc(-c3cnc(N)nc3C(F)F)nc(N3CCOCC3)n2)CC1` [Compound 23, 1-(4-(4-(2-amino-4-(difluoromethyl)pyrimidin-5-yl)-6-morpholino-1,3,5-triazin-2-yl)piperazin-1-yl)-7-methyloct-6-ene-1,5-dione], the “kchem (intrinsic reactivity of the inhibitors)” value in experiment [1] came out at 0.000224 M⁻¹ s⁻¹. In addition, at p110α (PI3Kα) (setting [3]), the Ki turned out to be 0.00806 µM. Moreover, the kinact at p110α (PI3Kα) (global fitting with KinTek) came out at 2.56e-05 s⁻¹. Besides, the kinact/KI on p110α (PI3Kα) is 3210 M⁻¹ s⁻¹.
Regarding `C/C=C/C(=O)N(C)CCCC(=O)N1CCN(c2nc(-c3cnc(N)nc3C(F)F)nc(N3CCOCC3)n2)CC1` [Compound 9, (E)-N-(4-(4-(4-(2-amino-4-(difluoromethyl)pyrimidin-5-yl)-6-morpholino-1,3,5-triazin-2-yl)piperazin-1-yl)-4-oxobutyl)-N-methylbut-2-enamide], the “kchem (intrinsic reactivity of the inhibitors)” value in experiment [1] was 3.35e-06 M⁻¹ s⁻¹. The Ki on p110α (PI3Kα) (setting [6]) came out at 0.0054 µM.
As for `C=CC(=O)CCCCC(=O)N1CCN(c2nc(-c3cnc(N)nc3C(F)F)nc(N3CCOCC3)n2)CC1` [Compound 1, 1-(4-(4-(2-amino-4-(difluoromethyl)pyrimidin-5-yl)-6-morpholino-1,3,5-triazin-2-yl)piperazin-1-yl)oct-7-ene-1,6-dione], the “kchem (intrinsic reactivity of the inhibitors)” value in experiment [1] is given as >>1.00 × 10^−1 M^−1 · s^−1. Besides, the Ki on p110α (PI3Kα) (setting [3]) came to 0.00587 µM. In addition, the kinact on p110α (PI3Kα) (global fitting with KinTek) came out at 0.0245 s⁻¹. The kinact/KI on p110α (PI3Kα) was 4.2e+06 M⁻¹ s⁻¹.
Turning to `C=CC(=O)N1CCC(C(=O)NCC(=O)N2CCN(c3nc(-c4cnc(N)nc4C(F)F)nc(N4CCOCC4)n3)CC2)CC1` [Compound 43, 1-acryloyl-N-(2-(4-(4-(2-amino-4-(difluoromethyl)pyrimidin-5-yl)-6-morpholino-1,3,5-triazin-2-yl)piperazin-1-yl)-2-oxoethyl)piperidine-4-carboxamide], the “kchem (intrinsic reactivity of the inhibitors)” value in experiment [1] came to 0.00037 M⁻¹ s⁻¹. The IC50 in experiment [2] (setting [5]) came out at 0.082 µM.
As for `CC(C)=CC(=O)N(C)CCCC(=O)N1CCN(c2nc(-c3cnc(N)nc3C(F)F)nc(N3CCOCC3)n2)CC1` [Compound 11, N-(4-(4-(4-(2-amino-4-(difluoromethyl)pyrimidin-5-yl)-6-morpholino-1,3,5-triazin-2-yl)piperazin-1-yl)-4-oxobutyl)-N,3-dimethylbut-2-enamide], the “kchem (intrinsic reactivity of the inhibitors)” value in experiment [1] was <<1.00 × 10^−7 M^−1 · s^−1. Besides, the Ki at p110α (PI3Kα) (setting [6]) was 0.00695 µM.
